{
  "source": "patent US9610274B2",
  "about": "“Methods for treating bipolar disorder” (priority 2010, dated 2017)",
  "key": {"[1]": {"biological_target": "T1, hSERT (human serotonin transporter) (Homo sapiens, UniProt P31645)", "T1 construct": "expressed in transfected cells; host or cells: HEK293 (ATCC), puromycin-selected clonal cells", "T1 sequence (P31645 whole entry)": "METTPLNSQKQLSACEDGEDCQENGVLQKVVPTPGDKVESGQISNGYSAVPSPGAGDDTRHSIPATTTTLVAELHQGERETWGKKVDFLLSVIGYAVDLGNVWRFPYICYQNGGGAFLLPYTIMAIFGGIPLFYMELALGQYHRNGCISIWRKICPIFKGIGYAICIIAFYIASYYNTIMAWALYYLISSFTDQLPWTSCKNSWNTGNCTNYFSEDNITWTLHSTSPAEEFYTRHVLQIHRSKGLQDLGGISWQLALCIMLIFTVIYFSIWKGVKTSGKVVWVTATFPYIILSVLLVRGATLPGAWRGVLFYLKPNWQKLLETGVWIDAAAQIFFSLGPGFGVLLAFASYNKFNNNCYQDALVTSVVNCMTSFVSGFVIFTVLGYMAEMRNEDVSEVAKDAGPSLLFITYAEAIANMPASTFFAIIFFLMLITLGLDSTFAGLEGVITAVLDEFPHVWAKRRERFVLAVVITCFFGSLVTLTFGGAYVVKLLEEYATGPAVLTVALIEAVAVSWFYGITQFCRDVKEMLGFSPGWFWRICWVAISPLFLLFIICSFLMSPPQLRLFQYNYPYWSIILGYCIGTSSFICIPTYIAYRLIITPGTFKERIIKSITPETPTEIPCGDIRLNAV", "assay": "Inhibition of [125I]RTI-55 binding to hSERT in HEK293 cell membranes", "details": "HEK-hSERT cells; mean ± SEM"}, "[2]": {"biological_target": "T2, hNET (human norepinephrine transporter) (Homo sapiens, UniProt P23975)", "T2 construct": "expressed in transfected cells; host or cells: HEK293 (ATCC), geneticin-selected clonal cells", "T2 sequence (P23975 whole entry)": "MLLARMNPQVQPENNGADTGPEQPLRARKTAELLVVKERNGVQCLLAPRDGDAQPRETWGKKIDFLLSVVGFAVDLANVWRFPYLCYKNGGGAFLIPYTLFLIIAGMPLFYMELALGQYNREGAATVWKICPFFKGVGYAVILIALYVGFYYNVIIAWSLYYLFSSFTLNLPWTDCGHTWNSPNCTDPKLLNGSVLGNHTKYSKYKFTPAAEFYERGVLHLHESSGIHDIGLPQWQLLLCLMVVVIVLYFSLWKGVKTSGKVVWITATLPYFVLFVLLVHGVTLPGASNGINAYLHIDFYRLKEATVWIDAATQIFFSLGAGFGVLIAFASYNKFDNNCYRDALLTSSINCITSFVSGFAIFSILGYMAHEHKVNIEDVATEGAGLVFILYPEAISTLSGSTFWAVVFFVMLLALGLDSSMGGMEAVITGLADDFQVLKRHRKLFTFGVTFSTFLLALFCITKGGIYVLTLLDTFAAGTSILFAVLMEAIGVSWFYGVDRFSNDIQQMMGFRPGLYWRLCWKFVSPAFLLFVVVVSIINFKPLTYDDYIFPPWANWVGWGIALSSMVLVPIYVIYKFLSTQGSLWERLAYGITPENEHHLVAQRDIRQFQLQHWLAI", "type": "binding", "details": "HEK-hNET cells; mean ± SEM"}, "[3]": {"biological_target": "T3, hDAT (human dopamine transporter) (Homo sapiens, UniProt Q01959)", "T3 construct": "expressed in transfected cells; host or cells: HEK293 (ATCC), puromycin-selected clonal cells", "T3 sequence (Q01959 whole entry)": "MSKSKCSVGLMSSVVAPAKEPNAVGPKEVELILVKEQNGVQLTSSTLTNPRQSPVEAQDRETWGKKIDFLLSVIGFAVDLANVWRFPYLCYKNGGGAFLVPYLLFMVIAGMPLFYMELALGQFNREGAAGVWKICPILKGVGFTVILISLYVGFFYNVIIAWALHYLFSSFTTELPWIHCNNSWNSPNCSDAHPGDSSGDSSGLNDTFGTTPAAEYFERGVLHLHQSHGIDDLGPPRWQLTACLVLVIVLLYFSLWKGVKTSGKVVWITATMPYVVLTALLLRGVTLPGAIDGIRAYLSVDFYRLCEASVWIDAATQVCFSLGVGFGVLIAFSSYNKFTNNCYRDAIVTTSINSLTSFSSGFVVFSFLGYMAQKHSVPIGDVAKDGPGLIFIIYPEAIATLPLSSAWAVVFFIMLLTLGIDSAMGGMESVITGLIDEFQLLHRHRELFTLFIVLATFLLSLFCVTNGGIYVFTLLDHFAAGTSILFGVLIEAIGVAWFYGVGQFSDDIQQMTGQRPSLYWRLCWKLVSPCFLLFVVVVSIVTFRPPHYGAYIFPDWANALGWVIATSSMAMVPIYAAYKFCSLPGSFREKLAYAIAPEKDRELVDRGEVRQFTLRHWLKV", "assay": "Inhibition of [125I]RTI-55 binding to hDAT in HEK293 cell membranes", "details": "HEK-hDAT cells; mean ± SEM"}, "[4]": {"biological_target": "T1, hSERT (human serotonin transporter)", "assay": "Inhibition of [3H]serotonin uptake in HEK-hSERT cells", "type": "cell-based"}, "[5]": {"test_system": "adult human subjects with moderate or severe major depression without psychotic features", "assay": "Randomized double-blind placebo- and active-controlled 6-week study in major depression", "type": "in vivo", "details": "for MADRS response rate / MADRS remission rate: Week 6; for MADRS response rate: >50% improvement in MADRS total score; for MADRS remission rate: MADRS total score less than 9; for 3 Atypical items of HAM-D 31, mean result / CGI-S score, mean result / MADRS core mood subscale, mean result / MADRS sadness (Items 1 + 2), mean result / MADRS total score (primary), mean result / MADRS total score, mean result: change from baseline at Week 6; for ABCD questionnaire items with statistically significant superiority to placebo: post hoc analyses, of 51 items, U.S. sites", "method": "The primary objective of this study was to determine the efficacy of 2 target doses of test compound (200 and 400 mg/day) in comparison with placebo during 6 weeks of treatment in adult human subjects with moderate or severe major depression without psychotic features. An active comparator (paroxetine) was included to assist in distinguishing a negative study from a failed study. In addition, an exit interview was intended to gather information on unexpected benefits of the test compound in order to refine the clinical development program. […] In addition, positive effects of the test compound on ratings of physical energy/fitness, reduction in sadness or depression and mental energy or motivation.\nThis was a randomized, double-blind, parallel-group, active, and placebo-controlled, multicenter study conducted in the U.S. (23 centers) and Canada (4 centers). There were 2 phases: a pretreatment phase (screening/washout and a baseline visit) and a 6-week, double-blind treatment phase. Paroxetine, a positive control, was included to evaluate assay sensitivity. After washout (if needed) of prohibited substances, subjects were randomly assigned (1:1:1:1) to receive the test compound titrated to a target dose of 200 mg/day or 400 mg/day, matching placebo, or a fixed dose (20 mg/day) of paroxetine. Study drug was given twice daily for 6 weeks. Efficacy and safety were assessed weekly during the double-blind phase. Subjects completing the study underwent an Exit Interview (“Your Health and Well-Being”) and completed an Assessment of Benefits of Clinical-trial Drug-treatment (ABCD) questionnaire (U.S. sites only)."}, "[6]": {"test_system": "homozygous mutant dopamine transporter knockout (KO) mice", "assay": "Spontaneous activity in the open field, dopamine transporter KO mice", "type": "in vivo", "method": "Male and female wild-type and homozygous mutant dopamine transporter KO mice (n˜10 mice/genotype/agent; produced by in vivo homologous recombination and bred at Duke University Medical Center, Durham, N.C.) were tested for spontaneous activity in the open field following a single injection of the vehicle or compound. […] All drugs were given in a volume of 5 mL/kg. Animals were returned to the open field for an additional 90 min. Spontaneous activity was evaluated in an automated Omnitech Digiscan apparatus (Accuscan Instruments, Columbus, Ohio). Activity was summated at 5 min intervals over the 2 h period of testing. Horizontal activity or locomotion was measured in terms of the total distance covered in cm, vertical activity or rearing was expressed in terms of the total numbers of vertical beam breaks, and stereotypy was quantified in terms of repetitive breaks of a given beam or beams with intervals of less than 1 sec. For the analyses, 10 WT and 10 KO mice were run in each of the treatment groups with approximately equal numbers of males and females assigned to each group. Data were analyzed by the Statistical Package for Social Sciences programs (version 11.0 for Windows; SPSS Science, Chicago, Ill.). The results for each dependent variable were analyzed by repeated analyses of variance (RMANOVA) for within subjects effects (group differences over time) and between-subjects effects (tests of main effects and interactions). Bonferroni corrected pair-wise comparisons were used as the post-hoc tests. A p <0.05 was considered significant."}, "rats": {"test_system": "rats", "assay": "Forced swimming test in rats", "type": "in vivo", "details": "4 hours post-treatment", "method": "Male CD-1 mice (16-24 g) and male Wistar rats (90-125 g) were utilized in these experiments. The test compound (10, 15 and 30 mg/kg) was dissolved in physiological saline (0.9%) and administered orally in a volume of 1 mL/100 g body weight.\nMice and rats were placed in glass cylinders of 1000 ml beakers (height 14 cm, diameter 11.5 cm) and 4000 ml beakers (height 24.5 cm, diameter 18.0 cm), respectively, containing water (25 degrees Celsius) up to a height of 9.0 cm for mice and 19.0 cm for rats. […] Immobility was defined as lack of movement, such as floating in the water with little or no movement of hind legs. Duration of immobility was timed with a stopwatch and recorded. In some experiments, mice or rats were allowed to swim for 6 or 10 minutes, respectively, one day prior to the forced swimming experiment.\nIn the single dose test, mice or rats were given test compound or 0.9% NaCl and placed in glass cylinders 1 hour or 4 hours post-treatment, respectively. In the multiple dose experiments, mice were dosed twice a day for 3 days and given an additional dose on Day 4. In addition, the mice were placed in the glass cylinders containing water at 25 degrees Celsius and allowed to swim for six minutes on Day 3. Statistical evaluation was performed using a computer program (The Pharmacological Calculation System of Tallarida and Murray (#425475-04-7-1992)) based on probit analysis. Statistical significance was determined using Student's t-test at a P value of <0.05."}, "[7]": {"details": "Per-Protocol (LOCF), TC 200 mg/day"}, "[8]": {"details": "Per-Protocol (LOCF), TC 400 mg/day"}},
  "note": "Entries after “also recorded” stand apart in the source; their conditions may differ.",
  "data": [
    {"smiles": "NC(=O)OC[C@H](N)Cc1ccccc1", "note": "[test compound, O-carbamoyl-(D)-phenylalaninol]", "values": [
      {"measurement": "Hill coefficient", "setting": "[1]", "value": "−2.28 ± 0.05"},
      {"measurement": "Hill coefficient", "setting": "[2]", "value": "−1.45 ± 0.34"},
      {"measurement": "Hill coefficient", "setting": "[3]", "value": "−0.77 ± 0.12"},
      {"measurement": "IC50", "setting": "[4]", "value": "> 100", "unit": "µM"},
      {"measurement": "MADRS response rate", "setting": "[5]; ITT (LOCF), TC 200 mg/day", "value": 36, "unit": "%"},
      {"measurement": "MADRS response rate", "setting": "[5]; ITT (LOCF), TC 400 mg/day", "value": 41, "unit": "%"},
      {"measurement": "MADRS remission rate", "setting": "[5]; ITT (LOCF), TC 200 mg/day", "value": 15, "unit": "%"},
      {"measurement": "MADRS remission rate", "setting": "[5]; ITT (LOCF), TC 400 mg/day", "value": 19, "unit": "%"},
      {"measurement": "3 Atypical items of HAM-D 31, mean result", "setting": "[5]; ITT (LOCF), TC 200 mg/day", "value": "−0.4"},
      {"measurement": "CGI-S score, mean result", "setting": "[5]; ITT (LOCF), TC 200 mg/day", "value": "−1.2"},
      {"measurement": "MADRS core mood subscale, mean result", "setting": "[5]; ITT (LOCF), TC 200 mg/day", "value": "−8.6"},
      {"measurement": "MADRS sadness (Items 1 + 2), mean result", "setting": "[5]; ITT (LOCF), TC 200 mg/day", "value": "−3.2"},
      {"measurement": "MADRS total score (primary), mean result", "setting": "[5]; ITT (LOCF), TC 200 mg/day", "value": "−12.1"},
      {"measurement": "3 Atypical items of HAM-D 31, mean result", "setting": "[5]; ITT (LOCF), TC 400 mg/day", "value": "−0.8"},
      {"measurement": "CGI-S score, mean result", "setting": "[5]; ITT (LOCF), TC 400 mg/day", "value": "−1.3"},
      {"measurement": "MADRS core mood subscale, mean result", "setting": "[5]; ITT (LOCF), TC 400 mg/day", "value": "−8.7"},
      {"measurement": "MADRS sadness (Items 1 + 2), mean result", "setting": "[5]; ITT (LOCF), TC 400 mg/day", "value": "−3.4"},
      {"measurement": "MADRS total score (primary), mean result", "setting": "[5]; ITT (LOCF), TC 400 mg/day", "value": "−12.4"},
      {"measurement": "superiority to placebo on the primary endpoint (change from baseline at Week 6 in MADRS total score)", "setting": "[5]; ITT (LOCF), test compound 200 mg and 400 mg, paroxetine 20 mg/day", "value": "Neither the 200-mg nor the 400-mg dose of the test compound was statistically significantly superior to placebo"},
      {"measurement": "MADRS response rate", "setting": "[5]; [7]", "value": 40, "unit": "%"},
      {"measurement": "MADRS response rate", "setting": "[5]; [8]", "value": 50, "unit": "%"},
      {"measurement": "MADRS remission rate", "setting": "[5]; [7]", "value": 20, "unit": "%"},
      {"measurement": "MADRS remission rate", "setting": "[5]; [8]", "value": 29, "unit": "%"},
      {"measurement": "CGI-S score, mean result", "setting": "[5]; [7]", "value": "−1.5"},
      {"measurement": "MADRS total score, mean result", "setting": "[5]; [7]", "value": "−14.8"},
      {"measurement": "CGI-S score, mean result", "setting": "[5]; [8]", "value": "−1.6"},
      {"measurement": "MADRS total score, mean result", "setting": "[5]; [8]", "value": "−15.0"},
      {"measurement": "superiority to placebo on the primary endpoint, men", "setting": "[5]; men, test compound 200 mg", "value": "nominally statistically significant superiority to placebo"},
      {"measurement": "ABCD questionnaire items with statistically significant superiority to placebo", "setting": "[5]; test compound 200 mg", "value": 14, "unit": "items"},
      {"measurement": "ABCD questionnaire items with statistically significant superiority to placebo", "setting": "[5]; test compound 400 mg", "value": 8, "unit": "items"},
      {"measurement": "superiority to placebo on the primary endpoint, women", "setting": "[5]; women, test compound 400 mg", "value": "statistically significant superiority to placebo"},
      {"measurement": "spontaneous activity (locomotor, rearing and stereotypical activities)", "setting": "[6]; single SC injection, test compound 10, 30, 100 mg/kg, amphetamine 2 mg/kg, 90 min post-injection, relative to vehicle", "value": "selectively reduced activity of the KO mice in a dose-dependent manner; also recorded: reduced activities in a dose-dependent fashion"},
      {"measurement": "spontaneous activity compared with amphetamine", "setting": "[6]; test compound 100 mg/kg SC versus amphetamine 2 mg/kg SC", "value": "suppressed activities more efficiently than amphetamine"},
      {"measurement": "mean duration of immobility", "setting": "rats; 10 mg/kg, control 74 sec, not statistically significant", "value": 62, "unit": "s"},
      {"measurement": "mean duration of immobility", "setting": "rats; 15 mg/kg, control 65 sec, not statistically significant", "value": 39, "unit": "s"},
      {"measurement": "mean duration of immobility", "setting": "rats; 30 mg/kg, control 38 sec, significant", "value": 9, "unit": "s"},
      {"measurement": "ED50", "setting": "rats; Rattus norvegicus, single dose PO, read-out: ED50 (reduction of mean immobility time)", "value": 18.5, "unit": "mg/kg"}
    ]}
  ]
}
